Laboratory results published in US11076595B2, “1-(n,n-disubstituted carbamoyl) 4-(substituted sulfonyl)triazolin-5-one derivative, 4-(n,n-disubstituted carbamoyl) 1-(substituted sulfonyl)triazolin-5-one derivative, and herbicide containing said derivative as active ingredient” (HOKKO CHEMICAL INDUSTRY CO., LTD., priority 2017, dated 2021).

How the values were obtained:
Type in all cases: in vivo
[1] = tested on: Echinochloa crus-galli; experiment: Test Example 11: herbicidal effect test by soil treatment in paddy field; conditions: 120 g/10a active ingredient, 14 days after treatment
Method in brief: (§1)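 Puddled paddy soil with N:P:K 17:17:17 fertilizer in Wagner pots; 30 seeds per species sown at 0–1 cm, flooded to about 3 cm, kept in a glass greenhouse. Water-diluted emulsifiable concentrate dripped in immediately after sowing at 120 g a.i. per 10 are. Suppression from dry weight versus untreated at 14 days.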

[2] = tested on: Lindernia pyxidaria; experiment: as above; conditions: 120 g/10a active ingredient, 14 days after treatment
Method in brief: as §1

[3] = tested on: Monochoria vaginalis; experiment: as above; conditions: 120 g/10a active ingredient, 14 days after treatment
Method in brief: as §1

[4] = tested on: Scirpus juncoides; experiment: as above; conditions: 120 g/10a active ingredient, 14 days after treatment
Method in brief: as §1

[5] = tested on: Echinochloa crus-galli; experiment: Test Example 12: herbicidal effect test by treatment during growing period in paddy field; conditions: 120 g/10a; treatment seven days after sowing in flooded paddy pot; assessed 14 days after treatment
Method in brief: (§2)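 Puddled paddy soil in Wagner pots, 30 seeds per species sown 0-1 cm deep, flooded to about 3 cm in a greenhouse. Seven days after sowing, water-diluted emulsifiable concentrate was dripped in at 120 g active ingredient per 10 are. Suppression (%) from dry weight versus untreated at 14 days, two replicates.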

[6] = tested on: Lindernia pyxidaria; experiment: as above; conditions: 120 g/10a; treatment seven days after sowing in flooded paddy pot; assessed 14 days after treatment
Method in brief: as §2

[7] = tested on: Monochoria vaginalis; experiment: as above; conditions: 120 g/10a; treatment seven days after sowing in flooded paddy pot; assessed 14 days after treatment
Method in brief: as §2

[8] = tested on: Scirpus juncoides; experiment: as above; conditions: 120 g/10a; treatment seven days after sowing in flooded paddy pot; assessed 14 days after treatment
Method in brief: as §2

[9] = tested on: Amaranthus viridis; experiment: Test Example 13: herbicidal effect test by soil treatment in upland field; conditions: 120 g/10a, 14 days after treatment
Method in brief: (§3)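 Field alluvial soil in 36 cm^2 pots had 20 seeds of each weed mixed into its top 1 cm. One day after sowing, a water-diluted emulsifiable concentrate was sprayed onto the soil at 100 liter per 10 are (120 g active ingredient per 10 are), with two replicates. Weed suppression (%) was assessed after 14 days.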

[10] = tested on: Chenopodium album; experiment: as above; conditions: 120 g/10a, 14 days after treatment
Method in brief: as §3

[11] = tested on: Echinochloa crus-galli; experiment: as above; conditions: 120 g/10a, 14 days after treatment
Method in brief: as §3

[12] = tested on: crabgrass; experiment: as above; conditions: 120 g/10a, 14 days after treatment
Method in brief: as §3

[13] = tested on: Chenopodium album; experiment: Test Example 14: herbicidal effect test by foliage treatment in upland field; conditions: 7 days after sowing, 120 g/10a, 14 days after treatment
Method in brief: (§4)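 Dose: 120 g a.i. per 10 are, sprayed in 100 L water per 10 are onto pots seven days post-sowing in alluvial soil. After 14 days, weed dry weight relative to untreated plots gave suppression rate (%); duplicate plots per concentration.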

[14] = tested on: crabgrass; experiment: as above; conditions: 7 days after sowing, 120 g/10a, 14 days after treatment
Method in brief: as §4

[15] = tested on: Amaranthus viridis; experiment: as above; conditions: 7 days after sowing, 120 g/10a, 14 days after treatment
Method in brief: as §4

[16] = tested on: Echinochloa crus-galli; experiment: as above; conditions: 7 days after sowing, 120 g/10a, 14 days after treatment
Method in brief: as §4

Row | Structure (SMILES) | Weed suppression rate (%) Echinochloa crus-galli [1] [%] | Weed suppression rate (%) Lindemia pyxidaria [2] [%] | Weed suppression rate (%) Monochoria vaginalis [3] [%] | Weed suppression rate (%) Scirpus juncoides [4] [%] | Weed suppression rate (%) Echinochloa crus-galli [5] [%] | Weed suppression rate (%) Lindemia pyxidaria [6] [%] | Weed suppression rate (%) Monochoria vaginalis [7] [%] | Weed suppression rate (%) Scirpus juncoides [8] [%] | herbicidal effect, Amaranthus viridis [9] [%] | herbicidal effect, Chenopodium album [10] [%] | herbicidal effect, Echinochloa crus-galli [11] [%] | herbicidal effect, Crabgrass [12] [%] | herbicidal effect, Chenopodium album [13] [%] | herbicidal effect, Crabgrass [14] [%] | herbicidal effect, Amaranthus viridis [15] [%] | herbicidal effect, Echinochloa crus-galli [16] [%]
1 | CC(C)N(C(=O)n1cnn(S(=O)(=O)N(C)C)c1=O)c1ccc(F)cc1F [Compound 11-1064] | 100 | 100 | 100 | 100 | 100 | 90 | 90 | 90 | 90 | 90 | 100 | 100 | 80 | 90 | 70 | 90
2 | CC(C)N(C(=O)n1cnn(S(=O)(=O)C2CC2)c1=O)c1ncc(Cl)cc1Cl [Compound 11-234] | 90 | 90 | 80 | 90 | 90 | 90 | 90 | 90 | 90 | 80 | 80 | 90 | 80 | 90 | 90 | 80
3 | CCc1ccc(S(=O)(=O)n2ncn(C(=O)N(c3ccc(F)cc3F)C(C)C)c2=O)cc1 [Compound 11-666] | 100 | 90 | 90 | 90 | 100 | 90 | 90 | 90 | 40 | 100 | 100 | 90 | 40 | 90 | 40 | 90
4 | COc1ccc(S(=O)(=O)n2ncn(C(=O)N(c3cccc(F)c3F)C(C)C)c2=O)cc1 [Compound 11-1149] | 100 | 100 | 100 | 100 | 100 | 80 | 100 | 100 | 30 | 30 | 70 | 70 | 70 | 80 | 30 | 70
5 | CCS(=O)(=O)n1ncn(C(=O)N(c2c(F)cccc2F)C(C)C)c1=O [Compound 11-1150] | 100 | 100 | 70 | 90 | 100 | 100 | 90 | 60 | 90 | 80 | 100 | 100 | 60 | 100 | 50 | 100
6 | CC(C)N(C(=O)n1cnn(S(=O)(=O)C2CC2)c1=O)c1c(F)cc(F)cc1F [Compound 11-195] | 100 | 100 | 80 | 100 | 100 | 70 | 90 | 90 | 90 | 90 | 100 | 100 | 70 | 100 | 30 | 100
7 | Cc1cc(C)c(S(=O)(=O)n2ncn(C(=O)N(c3ccccc3)C(C)C)c2=O)c(C)c1 [Compound 11-852] | 100 | 90 | 90 | 90 | 80 | 90 | 90 | 90 | 60 | 60 | 80 | 80 | 70 | 90 | 60 | 60
8 | CC(C)N(C(=O)n1cnn(S(=O)(=O)C(C)C)c1=O)c1ccc(F)c(F)c1F [Compound 11-62] | 100 | 100 | 90 | 100 | 100 | 80 | 100 | 100 | 100 | 60 | 70 | 70 | 90 | 100 | 100 | 100
